# Assay results from US20120040939A1, “MEDICINAL USE OF 5-BENZYLAMINOSALICYLIC ACID DERIVATIVE OR ITS SALT” (priority 2009, published 2012).
# Legend:
# Format in all cases: in vivo
# Male ICR mice [1] = assay: Tail suspension test (TST), antidepressant effect; conditions: twice daily, final 4 min of 6 min test, 1 h after treatment
# Protocol: The effectiveness of the compound was evaluated using a tail-suspension test as in vivo method for depression. In this test immobility time of animals typically for 5-10 minutes is recorded using a manual or an automated device.
# (§1) Male ICR mice weighing 28-30 g of body weight were used throughout the study. Experimental animals were kept in an animal breeding room with a 12 h dark/12 h light cycle and accommodated by 8 mice per cage supplied freely with water and feeding. The mice consisted of 8 animals per group were randomly allocated to the treatment groups.
# (§2) Compound 2 was suspended in 10% lutrol solution and the all suspended solutions were administered orally to the mice twice daily at a volume of 4 ml/kg. The control group was treated only with 10% lutrol solution in the same manner. All the treatment of drugs or vehicle to the animals were given 1 hour before the test (n=8/group).
# This test was evaluated according to the method described in a previous publication [Psycopharmacology 85, 367-370, Steru et al. (1985)]. At the day of experiment, the mice were acclimatized in the testing room over 60 minutes and given with the compound, and then the test was conducted. After 1 h after drug treatment, the mice were taped with experimental adhesive tape, at approximately 1 cm from the tip of the tail. The mice were individually suspended on an experimental shelf about 58 cm above a table top by attaching the adhesive tape at the tip of the tail to the experimental shelf. And after that, total immobility time was measured for 6 min in the absence of noise. The total immobility time was measured during the final 4 min of a 6 min test session and the data were expressed as mean and analyzed by one-way ANOVA followed by Tukey's HSD (Honestly Significant Difference) post hoc comparison.
# Sprague-Dawley (SD) rats = assay: Water immersion restraint stress (WIRS) gastric damage model; conditions: 30 mg/kg, given 1 hour before 10 hours WIRS
# Protocol: The Sprague-Dawley (SD) rats weighing 200 g of body weight were deprived of food for over 24 hours and then were given with the experimental compound. After 1 hour, the rats were placed in a stress cage and immersed into water at 24° C. for 10 hours to induce WIRS
# The SD rats weighing 200 g of body weight were deprived of food for 24 h and then were given with 30 mg/kg of compound 2. After 1 hour, the rats were placed in a stress cage and immersed into water for 10 hours. After WIRS for 10 hours, the rats were sacrificed under anesthesia with ether. Each stomach was isolated, soaked and fixed in 10 ml of 2% formalin solution for 10 minutes, and then opened along the greater curvature of the stomach. After spreading the stomach, stress-induced hemorrhagic lesions were examined macroscopically, and the results were shown in FIG. 2.
# Male ICR mice [2] = assay: Locomotor activity using open field test; conditions: 1.25-50 mg/kg oral, twice daily; 1 hour before the test
# Protocol: The locomotor activity using open field test measured to know influence of drug treatment on activity in animals. Male ICR mice weighing 20-23 g of body weight were used throughout the study.
# Experimental animals were kept in an animal breeding room with a […] cycle and accommodated by 8 mice per cage supplied freely with water and feeding. The mice consisted of 8 animals per group were randomly allocated to the treatment groups.
# as §2, with “and all” for “and”, “the” for “the all”, “5” for “4”
# The open field was consisted of square arena (58 cm×58 cm) surrounded by a 30 cm height wall. […] At the start of each trial, a mouse was placed in a corner of the field and was allowed to freely move the arena and the moving trajectory for 5 min was measured. The behavior of animals was recorded and analyzed using a videotracking software (Etho Vision 3.0, Noldus Information Technology, Leesburg, Va.) attached to the ceiling above the middle of the arena.
# The collected data were analyzed by one-way ANOVA followed by Tukey's HSD (Honestly Significant Difference) post hoc comparison.
# male C57BL/6 mice [3] = assay: Forced swimming test, antidepressant effect; conditions: final 4 min of 6-min session
# Protocol: Forced swimming test is used to select compounds with therapeutic efficacy for depression. […] The immobility time is counted whenever the animal remained floating passively in the water without struggling except minimal movement to protrude its head above the water surface.
# as §1, with “Nine-week-old male C57BL/6” for “Male ICR”, “20-23” for “28-30”, “through this” for “throughout the”
# as §2, with “and all” for “and”, “the” for “the all”, “5” for “4”
# At the day of the experiment, the mice were acclimatized in the testing room over 60 minutes, orally given with the compound 2 or vehicle control, and received the forced swimming test. For the forced swimming test, a mouse was individually forced to swim inside an open glass cylindrical bath with height of 26 cm and diameter of 14 cm filled with water at 24±1° C. up to 16 cm high from the bottom so that the mouse tail could not reach the bottom. One hour after the mouse were orally given compound 2 and control vehicle, then the mice were exposed to forced swimming for 6 min in the water bath and their movement was recorded using a video camera system. The total duration of immobility was measured as a mean during the final 4 min of a 6-min test session and the data were statistically analyzed with one-way ANOVA followed by Tukey's HSD (Honestly Significant Difference) post hoc comparison.
# male C57BL/6 mice [4] = assay: Repeated restraint stress test with forced swim test as index for depression; conditions: for decrease of immobility time compared with stressed control group (control 2): forced swim test; for decrease of immobility time compared with unstressed group (control 1): no stress, forced swimming test
# Protocol: To test the efficacy of compounds on a stress-induced depression a restraint stress animal model was used. After evoking depression symptoms in a mouse corresponding to a human depression by exposing a stressed condition that it was placed in a narrow space to be unable to move, whether the compounds have any anti-depression effects were tested after treatment to this animal.
# as §1, with “Nine-week-old male C57BL/6 mice” for “Male ICR mice”, “weighing 20-23” for “weighing 28-30”, “used through this” for “used throughout the”, “by 5-6” for “by 8”, “of 11” for “of 8”
# as §2, with “and all” for “and”, “the” for “the all”, “5” for “4”, “(n=11/group).” for “(n=8/group).”
# Animals were subjected to restraint-stress one hour after compound 2 or 10% lutrol was administered orally. Mice were exposed to restraint stress everyday 2 hr for 14 days and received a forced swim test such as <Example 4> as an index for depression.
# male C57BL/6 mice [5] = assay: Stress-induced anxiety (restraint stress), elevated plus maze (EPM); conditions: EPM 5 minutes
# Protocol: To evaluate the effect of compound 2 on stress-induced anxiety, we used a restraint stress animal model. Anxiety was evoked by exposing stress that a mice was restrained to be immovable in a narrow space, and whether the compound could show anxiolytic effect after administration the animals.
# When experimental animals are exposed to stress, various physiological changes occur, which can be measured through several behavioral tests. In this study, anxiety of experimental animals was evaluated by an elevated plus maze (EPM). EPM apparatus consisted of two open arms, and two closed arms which are horizontally crossed. It is designed that the cross path is located 60 cm above the floor for the animals to feel anxiety. […]
# At the day of experiment, animals exposed to restraint stress after animals were acclimatized to testing room over 60 minutes, and then were orally administered with the compound. One hour after administration the oral administration of compound 2 or lutrol, experimental animals were placed at the center of EPM and the animal behaviors were recorded during total 5 minutes using a camera mounted on the ceiling and a computer program (etho vision 3.0 (Noldus Information Technology)). The collected data were expressed as % time spent in open arms and the statistical analysis was done using one-way ANOVA followed by LSD (Least significant difference) post hoc comparisons.
# [6] = 2.5 mg/kg oral BID + restraint stress 2 hr daily for 14 days
# [7] = 5 mg/kg oral BID + restraint stress 2 hr daily for 14 days
structure (smiles),measurement,setting,value
"O=C(O)c1cc(NCCc2ccc(C(F)(F)F)cc2)ccc1O [compound 2, 2-hydroxy-5-[2-(4-trifluoromethyl-phenyl)-ethylamino]-benzoic acid]",decrease of total immobility time compared with the control group,Male ICR mice [1]; 1.25 mg/kg oral,46%
same,decrease of total immobility time compared with the control group,Male ICR mice [1]; 2.5 mg/kg oral,43%
same,decrease of total immobility time compared with the control group,Male ICR mice [1]; 5 mg/kg oral,42%
same,decrease of total immobility time compared with the control group,Male ICR mice [1]; 12.5 mg/kg oral,38%
same,decrease of total immobility time compared with the control group,Male ICR mice [1]; 25 mg/kg oral,54%
same,decrease of total immobility time compared with the control group,Male ICR mice [1]; 50 mg/kg oral,57%
same,WIRS-induced gastric lesion index,Sprague-Dawley (SD) rats,definitely reduced
same,"locomotor activity (open field, 5 min)",Male ICR mice [2],not different among groups
same,decrease of immobility time compared with the vehicle control group,male C57BL/6 mice [3]; 1.25 mg/kg oral BID,31%
same,decrease of immobility time compared with the vehicle control group,male C57BL/6 mice [3]; 2.5 mg/kg oral BID,34%
same,decrease of immobility time compared with the vehicle control group,male C57BL/6 mice [3]; 5 mg/kg oral BID,30%
same,decrease of immobility time compared with the vehicle control group,male C57BL/6 mice [3]; 12.5 mg/kg oral BID,34%
same,decrease of immobility time compared with stressed control group (control 2),male C57BL/6 mice [4]; [6],32%
same,decrease of immobility time compared with unstressed group (control 1),male C57BL/6 mice [4]; 2.5 mg/kg oral BID for 2 weeks,21%
same,decrease of immobility time compared with stressed control group (control 2),male C57BL/6 mice [4]; [7],39%
same,decrease of immobility time compared with unstressed group (control 1),male C57BL/6 mice [4]; 5 mg/kg oral BID for 2 weeks,26%
same,"% time spent in open arm, increase compared with the stressed group (control 2)",male C57BL/6 mice [5]; [6],24%
same,"% time spent in open arm, increase compared with the stressed group (control 2)",male C57BL/6 mice [5]; [7],23%
